14 compounds from patent US10526337B2, “Heteroaryl derivative or pharmaceutically acceptable salt thereof, preparation method therefor, and pharmaceutical composition for preventing or treating diseases associated with PI3 kinases, containing same as active ingredient” (KOREA RESEARCH INSTITUTE OF CHEMICAL TECHNOLOGY, priority 2015, dated 2020) can be followed below.

What all share (conditions): ATP=10 uM, sample concentration=100 nM
Assay [1] deals with T1, PI3 Kinase (p110δ/p85α) (h) (Homo sapiens, UniProt O00329).
T1 construct: endogenous in cells; host or cells: Raji
T1 sequence (O00329 whole entry): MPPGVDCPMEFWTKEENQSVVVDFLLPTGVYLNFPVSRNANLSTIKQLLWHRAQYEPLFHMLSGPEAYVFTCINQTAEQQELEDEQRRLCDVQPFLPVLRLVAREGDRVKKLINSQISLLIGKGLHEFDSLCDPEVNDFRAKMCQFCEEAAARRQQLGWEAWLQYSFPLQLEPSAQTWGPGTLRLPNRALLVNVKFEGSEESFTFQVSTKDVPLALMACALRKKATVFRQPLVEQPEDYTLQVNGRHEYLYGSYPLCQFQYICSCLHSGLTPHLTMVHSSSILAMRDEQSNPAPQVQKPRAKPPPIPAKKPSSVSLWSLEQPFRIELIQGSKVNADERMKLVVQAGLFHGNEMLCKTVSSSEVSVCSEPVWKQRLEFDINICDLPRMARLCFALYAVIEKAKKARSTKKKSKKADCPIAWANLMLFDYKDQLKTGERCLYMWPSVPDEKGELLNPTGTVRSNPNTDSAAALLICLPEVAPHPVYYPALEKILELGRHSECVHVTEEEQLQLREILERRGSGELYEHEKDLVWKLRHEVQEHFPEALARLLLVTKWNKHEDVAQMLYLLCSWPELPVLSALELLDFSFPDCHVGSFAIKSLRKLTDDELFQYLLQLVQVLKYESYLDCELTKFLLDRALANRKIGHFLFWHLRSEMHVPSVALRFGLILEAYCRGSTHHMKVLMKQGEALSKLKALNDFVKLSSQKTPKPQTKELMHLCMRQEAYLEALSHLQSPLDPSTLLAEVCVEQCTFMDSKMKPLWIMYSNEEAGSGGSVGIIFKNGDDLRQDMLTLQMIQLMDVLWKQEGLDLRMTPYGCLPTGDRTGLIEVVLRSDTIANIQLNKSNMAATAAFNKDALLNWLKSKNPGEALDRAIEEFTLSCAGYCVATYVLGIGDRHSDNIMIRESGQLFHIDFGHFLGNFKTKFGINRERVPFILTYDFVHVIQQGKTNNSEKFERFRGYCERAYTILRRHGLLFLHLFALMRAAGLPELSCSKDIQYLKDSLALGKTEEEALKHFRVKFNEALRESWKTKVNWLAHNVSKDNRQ
T1 sequence (P27986 whole entry partner): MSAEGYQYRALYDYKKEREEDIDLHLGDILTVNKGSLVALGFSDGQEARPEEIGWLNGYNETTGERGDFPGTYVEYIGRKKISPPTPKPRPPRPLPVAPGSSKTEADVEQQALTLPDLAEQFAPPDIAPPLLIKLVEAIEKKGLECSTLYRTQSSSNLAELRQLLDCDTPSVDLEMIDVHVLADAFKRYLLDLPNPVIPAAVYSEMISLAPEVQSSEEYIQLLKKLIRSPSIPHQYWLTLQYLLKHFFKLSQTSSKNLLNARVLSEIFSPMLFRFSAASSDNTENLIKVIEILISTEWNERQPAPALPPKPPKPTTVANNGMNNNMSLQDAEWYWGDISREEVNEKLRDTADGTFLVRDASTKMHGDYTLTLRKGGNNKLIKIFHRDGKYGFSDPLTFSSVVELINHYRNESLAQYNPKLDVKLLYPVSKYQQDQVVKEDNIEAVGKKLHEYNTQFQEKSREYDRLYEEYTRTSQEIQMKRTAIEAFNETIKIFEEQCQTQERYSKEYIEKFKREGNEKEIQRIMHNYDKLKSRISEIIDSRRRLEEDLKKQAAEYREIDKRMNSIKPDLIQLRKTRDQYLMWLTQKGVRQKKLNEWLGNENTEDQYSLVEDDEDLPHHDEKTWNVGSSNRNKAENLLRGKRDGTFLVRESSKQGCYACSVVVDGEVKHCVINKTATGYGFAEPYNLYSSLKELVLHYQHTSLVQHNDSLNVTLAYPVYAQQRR
Put plainly: Inhibition of phosphatidylinositol 3-kinase delta (PI3K δ), pAkt Western blotting in IgM-stimulated Raji cells. Type of assay: cell-based. The procedure, abridged:
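Raji cells were treated with compound for 1.5 h, then stimulated with 0.25 μg/mL IgM for 30 min to activate PI3Kδ. Lysates were Western blotted for pAkt (Ser473 or Thr308) with ECL detection. Conditions stated: ATP=10 uM, sample concentration=100 nM.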

Assay [2] has as its target T2, PI3 Kinase (p110β/p86α) (h) (Homo sapiens, UniProt P42338).
T2 construct: endogenous in cells; host or cells: PC3
The experiment in a line: Inhibition of phosphatidylinositol 3-kinase beta (PI3K β), pAkt Western blotting in LPA-stimulated PC3 cells. Type of assay: cell-based. As to the method:
(§1) The stimulated cells were transferred in a 1.5 mL tube, followed by centrifugation at 3000 rpm for 1 minute. 100 μL of RIPA buffer (radioimmunoprecipitation assay buffer, 50 mM Tris-HCl, 5 mM EDTA, 150 mM NaCl, 1% NP-40, 1 mM PMSF, pH 8.0; ELPIS, Korea) was added thereto, which was stored in a 4° C. refrigerator for 12 hours. Centrifugation was performed at 4° C. at 14,000 rpm for 20 minutes. The supernatant was transferred into a new 1.5 mL tube. Protein was quantified by BCA (bicinchoninic acid) method and samples were prepared. The composition of the sample was as follows: sample buffer (ELPIS, EBA-1052) 5×, protein 10 μg, and 1× sample buffer to make the total volume 20 μL. The sample was heated at 100° C. for 5 minutes. The evaporated water vapor was condensed in a refrigerator. The liquid stained on the wall was fallen down by centrifugation for a few seconds. The sample proceeded to 10% SDS (Sodium Dodecyl Sulfate) acrylamide gel for separation. The separated protein was transferred onto PVDF (poly-vinyl difluoride) membrane, followed by reaction with pAkt (phospho protein kinase B) antibody (Ser473 or Thr308; Cell signaling, 9271s or 13038s) for 12 hours at 4° C. The membrane was washed with TBST (Tris-Buffered Saline with Tween 20, 10 mM Tris-HCl, pH 7.5, 150 mM NaCl, 0.1% Tween-20) three times for 5 minutes each, to which the secondary antibody (rabbit antibody, Santacruz, sc-2004) was added, followed by reaction at room temperature for 2 hours. The membrane was washed with TBST three times for 10 minutes each, to which ECL (enhanced chemiluminescence, Thermo, NCI34095KR) was sprayed. Bands were investigated by using LAS-3000.
The inhibition of phosphatidylinositol 3 kinase beta (PI3K β) by those compounds prepared in Examples 1˜98 was investigated by the following experiment. The inhibition activity of each compound was measured in the following conditions: ATP=10 uM, and sample concentration=100 nM.
Human prostate cancer cells (PC3 cells) cultured in DMEM (Dulbecco's Modified Eagle Medium, Hyclon, SH30243.01) supplemented with 10% fetal bovine serum (Hyclon, USA) were distributed in a 12-well plate at the density of 1,000,000 cells/well. The cells were stabilized in a 37° C. CO2 for 24 hours and then treated with each compound for 1 and half hours. The cells were treated with 10 ng/mL of LPA (lysophosphatidic acid, 10 μg/mL; R&D, 2150-05) to increase the intracellular activity of PI3K beta. 5 minutes later, the medium was discarded and the cells were washed with cold PBS (phosphate buffered saline, Gibco, 14190-250). PBS was then eliminated completely by using a pipette. Western blotting was performed according to the same manner as described in step 2 of Experimental Example 1 to evaluate the intracellular PI3K beta activity.
Background: Immunoblotting shows a protein as a band on a membrane.

Assay [3] addresses T3, PI3 Kinase (p110α/p85α) (h) (Homo sapiens, UniProt P42336).
T3 construct: endogenous in cells; host or cells: MDA-MB-453
The experiment in a line: Inhibition of phosphatidylinositol 3-kinase alpha (PI3K α), pAkt Western blotting in EGF-stimulated MDA-MB-453 cells. Type of assay: cell-based. As to the method: The inhibition of phosphatidylinositol 3 kinase alpha (PI3K α) by those compounds prepared in Examples 1˜98 was investigated by the following experiment. The inhibition activity of each compound was measured in the following conditions: ATP=10 uM, and sample concentration=100 nM.
Human breast cancer cells (MDA-MB-453) cultured in DMEM (Dulbecco's Modified Eagle Medium, Hyclon, SH30243.01) supplemented with 10% fetal bovine serum (Hyclon, USA) were distributed in a 12-well plate at the density of 1,000,000 cells/well. The cells were stabilized in a 37° C. CO2 for 24 hours and then treated with each compound for 1 and half hours. The cells were treated with 10 ng/mL of EGF (Epidermal Growth Factor, 10 μg/mL; R&D, 2150-C5) to increase the intracellular activity of PI3K alpha. 5 minutes later, the medium was discarded and the cells were washed with cold PBS (phosphate buffered saline, Gibco, 14190-250). PBS was then eliminated completely by using a pipette. Western blotting was performed as described in step 2 to evaluate the intracellular PI3K alpha activity.
as §1

The target of assay [4] is T4, PI3 Kinase (p120γ) (h) (Homo sapiens, UniProt P48736).
T4 construct: endogenous in cells; host or cells: RAW264.7
The experiment in a line: Inhibition of phosphatidylinositol 3-kinase gamma (PI3K γ), pAkt Western blotting in C5a-stimulated RAW264.7 macrophages. Type of assay: cell-based, mouse. Put shortly:
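Enzyme: PI3Kγ activity measured at ATP=10 uM with compound at 100 nM. Cellular: RAW264.7 macrophages treated with compound 1.5 h, then stimulated with 10 ng/mL C5a for 5 min; lysates (10 μg protein) probed by Western blot for pAkt (Ser473 or Thr308), ECL detection.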

Bounds are passed on as bounds.

T3 sequence (P42336 whole entry): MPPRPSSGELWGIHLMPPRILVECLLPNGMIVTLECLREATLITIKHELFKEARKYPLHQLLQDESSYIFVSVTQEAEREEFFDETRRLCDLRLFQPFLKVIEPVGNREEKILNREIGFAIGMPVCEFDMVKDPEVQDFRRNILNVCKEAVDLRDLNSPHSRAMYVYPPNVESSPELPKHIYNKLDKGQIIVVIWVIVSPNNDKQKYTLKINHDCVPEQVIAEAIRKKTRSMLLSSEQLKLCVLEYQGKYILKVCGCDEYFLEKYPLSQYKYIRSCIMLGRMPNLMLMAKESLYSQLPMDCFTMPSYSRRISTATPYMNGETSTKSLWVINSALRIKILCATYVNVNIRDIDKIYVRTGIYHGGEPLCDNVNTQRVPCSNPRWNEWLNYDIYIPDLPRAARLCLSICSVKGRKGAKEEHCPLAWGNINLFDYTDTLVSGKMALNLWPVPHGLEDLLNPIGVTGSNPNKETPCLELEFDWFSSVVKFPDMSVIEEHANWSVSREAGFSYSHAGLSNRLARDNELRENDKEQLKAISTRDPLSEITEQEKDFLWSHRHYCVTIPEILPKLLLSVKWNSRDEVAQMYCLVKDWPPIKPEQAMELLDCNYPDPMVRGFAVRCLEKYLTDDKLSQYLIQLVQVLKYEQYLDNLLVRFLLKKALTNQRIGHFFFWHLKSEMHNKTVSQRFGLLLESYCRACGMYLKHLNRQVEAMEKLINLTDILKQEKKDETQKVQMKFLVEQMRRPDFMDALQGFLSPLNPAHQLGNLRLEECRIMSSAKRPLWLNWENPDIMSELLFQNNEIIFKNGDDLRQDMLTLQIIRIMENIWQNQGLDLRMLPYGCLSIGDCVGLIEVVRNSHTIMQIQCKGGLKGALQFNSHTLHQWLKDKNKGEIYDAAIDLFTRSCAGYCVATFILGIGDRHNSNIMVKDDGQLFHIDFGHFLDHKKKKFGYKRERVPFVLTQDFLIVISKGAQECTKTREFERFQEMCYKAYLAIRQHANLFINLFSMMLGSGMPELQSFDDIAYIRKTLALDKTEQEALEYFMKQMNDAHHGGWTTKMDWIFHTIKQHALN
T3 sequence (P27986 2-724 partner limits assumed): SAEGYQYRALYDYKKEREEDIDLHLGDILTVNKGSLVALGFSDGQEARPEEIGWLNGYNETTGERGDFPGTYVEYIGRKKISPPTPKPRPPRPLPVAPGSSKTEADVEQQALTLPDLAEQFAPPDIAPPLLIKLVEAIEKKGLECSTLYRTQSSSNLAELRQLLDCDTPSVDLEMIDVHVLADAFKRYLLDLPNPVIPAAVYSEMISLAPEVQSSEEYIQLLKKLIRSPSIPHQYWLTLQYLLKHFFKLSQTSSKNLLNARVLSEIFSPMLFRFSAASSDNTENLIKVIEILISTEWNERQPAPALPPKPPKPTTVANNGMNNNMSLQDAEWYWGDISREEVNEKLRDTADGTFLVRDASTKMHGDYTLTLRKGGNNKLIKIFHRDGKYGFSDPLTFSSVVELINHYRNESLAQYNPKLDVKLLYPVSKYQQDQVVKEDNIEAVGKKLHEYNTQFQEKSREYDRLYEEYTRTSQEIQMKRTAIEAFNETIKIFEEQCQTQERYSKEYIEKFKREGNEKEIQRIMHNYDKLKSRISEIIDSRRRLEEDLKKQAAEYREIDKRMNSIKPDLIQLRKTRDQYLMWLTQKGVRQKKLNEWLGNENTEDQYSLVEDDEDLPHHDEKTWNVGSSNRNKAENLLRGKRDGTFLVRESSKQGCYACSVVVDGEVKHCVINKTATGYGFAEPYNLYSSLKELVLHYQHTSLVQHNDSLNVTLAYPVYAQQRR
T2 sequence (P42338 whole entry): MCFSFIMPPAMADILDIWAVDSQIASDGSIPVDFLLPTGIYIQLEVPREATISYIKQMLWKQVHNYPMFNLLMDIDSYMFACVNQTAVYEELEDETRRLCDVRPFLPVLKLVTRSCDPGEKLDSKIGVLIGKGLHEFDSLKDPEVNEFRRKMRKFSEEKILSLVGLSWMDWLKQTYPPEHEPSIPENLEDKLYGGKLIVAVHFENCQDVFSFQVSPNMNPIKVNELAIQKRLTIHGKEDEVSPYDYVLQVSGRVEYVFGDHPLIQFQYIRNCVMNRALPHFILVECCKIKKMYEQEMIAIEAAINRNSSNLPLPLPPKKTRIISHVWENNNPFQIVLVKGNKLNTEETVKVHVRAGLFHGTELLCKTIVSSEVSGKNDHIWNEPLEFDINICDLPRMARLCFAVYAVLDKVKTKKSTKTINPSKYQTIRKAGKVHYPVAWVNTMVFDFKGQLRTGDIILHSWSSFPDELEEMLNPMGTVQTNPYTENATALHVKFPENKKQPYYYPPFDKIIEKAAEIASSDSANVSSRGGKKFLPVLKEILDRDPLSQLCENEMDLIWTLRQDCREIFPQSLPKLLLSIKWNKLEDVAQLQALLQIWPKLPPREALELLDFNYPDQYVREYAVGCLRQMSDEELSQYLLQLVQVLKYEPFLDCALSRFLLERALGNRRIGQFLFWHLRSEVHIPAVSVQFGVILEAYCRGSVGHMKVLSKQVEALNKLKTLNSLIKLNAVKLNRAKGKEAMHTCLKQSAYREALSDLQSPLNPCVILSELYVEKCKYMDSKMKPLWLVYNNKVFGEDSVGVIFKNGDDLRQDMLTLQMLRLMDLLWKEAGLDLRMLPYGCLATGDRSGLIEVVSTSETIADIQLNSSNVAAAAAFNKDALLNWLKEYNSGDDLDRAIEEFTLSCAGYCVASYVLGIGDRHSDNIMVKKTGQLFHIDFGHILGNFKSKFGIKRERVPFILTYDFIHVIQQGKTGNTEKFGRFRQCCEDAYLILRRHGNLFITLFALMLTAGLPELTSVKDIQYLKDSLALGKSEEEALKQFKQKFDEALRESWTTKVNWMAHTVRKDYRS
T2 sequence (P27986 whole entry partner): as the sequence (P27986 whole entry partner) above

Take `C[C@H](Nc1nc(N)nc2[nH]ccc(=O)c12)c1cc2cccc(Cl)c2c(=O)n1-c1ccccc1` [Example 15, (S)-2-amino-4-((1-(8-chloro-1-oxo-2-phenyl-1,2-dihydroisoquinoline-3-yl)ethyl)amino)pyrido[2,3-d]pyrimidine-5(8H)-one]: the half-inhibitory concentration (IC50) (usually the concentration that gives 50% inhibition) in assay [1] was below 10 nM; in assay [2], 10 to 500 nM; in assay [3], 10 to 500 nM; in assay [4], 10 to 500 nM.
`Nc1nc(N2CCC[C@H]2c2cc3cccc(Cl)c3c(=O)n2-c2ccccc2)c2c(=O)cc[nH]c2n1` [Example 16, (S)-2-amino-4-(2-(8-chloro-1-oxo-2-phenyl-1,2-dihydroisoquinoline-3-yl)pyrrolidine-1-yl)pyrido[2,3-d]pyrimidine-5(8H)-one]: the concentration for half-maximal inhibition (IC50) in assay [1] was 10 to 500 nM; in assay [2], above 500 nM; in assay [3] it was above 500 nM; in assay [4], 10 to 500 nM.
On to `Cc1c[nH]c2ncnc(N[C@@H](C)c3cc4cccc(Cl)c4c(=O)n3-c3ccccc3)c2c1=O` [Example 17, (S)-4-((1-(8-chloro-1-oxo-2-phenyl-1,2-dihydroisoquinoline-3-yl)ethyl)amino)-6-methylpyrido[2,3-d]pyrimidine-5(8H)-one], for which the IC50 in assay [1] is 10 to 500 nM; in assay [2], above 500 nM; in assay [3] it was above 500 nM; in assay [4], 10 to 500 nM.
Take `Cc1c[nH]c2nc(N)nc(N[C@@H](C)c3cc4cccc(Cl)c4c(=O)n3-c3ccccc3)c2c1=O` [Example 18, (S)-2-amino-4-((1-(8-chloro-1-oxo-2-phenyl-1,2-dihydroisoquinoline-3-yl)ethyl)amino)-6-methylpyrido[2,3-d]pyrimidine-5(8H)-one]: the IC50 in assay [1] was below 10 nM; in assay [2], 10 to 500 nM; in assay [3] it was 10 to 500 nM; in assay [4], 10 to 500 nM.
For `C[C@H](Nc1ncnc2[nH]cc(C#N)c(=O)c12)c1cc2cccc(Cl)c2c(=O)n1-c1ccccc1` [Example 19, (S)-4-((1-(8-chloro-1-oxo-2-phenyl-1,2-dihydroisoquinoline-3-yl)ethyl)amino)-5-oxo-5,8-dihydropyrido[2,3-d]pyrimidine-6-carbonitrile], the IC50 in assay [1], in assay [2], in assay [3] and in assay [4] was above 500 nM in each case.
For the compound `C[C@H](Nc1ncnc2[nH]cc(F)c(=O)c12)c1cc2cccc(Cl)c2c(=O)n1-c1ccccc1` [Example 20, (S)-4-((1-(8-chloro-1-oxo-2-phenyl-1,2-dihydroisoquinoline-3-yl)ethyl)amino)-6-fluoropyrido[2,3-d]pyrimidine-5(8H)-one], the 50% inhibitory concentration (IC50) in assay [1] was below 10 nM; in assay [2], above 500 nM; in assay [3], above 500 nM; in assay [4] it was 10 to 500 nM.
In the case of `C[C@H](Nc1ncnc2[nH]cc(F)c(=O)c12)c1nc2cccc(Cl)c2c(=O)n1-c1ccccc1` [Example 21, (S)-4-((1-(5-chloro-4-oxo-3-phenyl-3,4-dihydroquinazoline-2-yl)ethyl)amino)-6-fluoropyrido[2,3-d]pyrimidine-5(8H)-one], the IC50 in assay [1] was below 10 nM; in assay [2], 10 to 500 nM; in assay [3], 10 to 500 nM; in assay [4] it was 10 to 500 nM.
For `C[C@H](Nc1ncnc2[nH]cc(Cl)c(=O)c12)c1nc2cccc(Cl)c2c(=O)n1-c1ccccc1` [Example 22, (S)-6-chloro-4-((1-(5-chloro-4-oxo-3-phenyl-3,4-dihydroquinazoline-2-yl)ethyl)amino)pyrido[2,3-d]pyrimidine-5(8H)-one], the IC50 in assay [1] was below 10 nM; in assay [2] it was above 500 nM; in assay [3], above 500 nM; in assay [4], 10 to 500 nM.
Turning to `C[C@H](Nc1ncnc2[nH]cc(Cl)c(=O)c12)c1cc2cccc(Cl)c2c(=O)n1-c1ccccc1` [Example 23, (S)-6-chloro-4-((1-(8-chloro-1-oxo-2-phenyl-1,2-dihydroisoquinoline-3-yl)ethyl)amino)pyrido[2,3-d]pyrimidine-5(8H)-one], the 50% inhibitory concentration (IC50) in assay [1] is below 10 nM; in assay [2] it was above 500 nM; in assay [3] it was above 500 nM; in assay [4], 10 to 500 nM.
As to `C[C@H](Nc1ncnc2[nH]cc(Cl)c(=O)c12)c1c(Cl)c2cccc(Cl)c2c(=O)n1-c1ccccc1` [Example 24, (S)-6-chloro-4-((1-(4,8-dichloro-1-oxo-2-phenyl-1,2-dihydroisoquinoline-3-yl)ethyl)amino)pyrido[2,3-d]pyrimidine-5(8H)-one], the IC50 is 10 to 500 nM in assay [1], above 500 nM in assay [2], above 500 nM in assay [3] and 10 to 500 nM in assay [4].
For the compound `C[C@H](Nc1nc(N)nc2[nH]ccc(=O)c12)c1nc2ccc(F)cc2cc1-c1ccccn1` [Example 25, (S)-2-amino-4-((1-(6-fluoro-3-(pyridine-2-yl)quinoline-2-yl)ethyl)amino)pyrido[2,3-d]pyrimidine-5(8H)-one], the IC50 in assay [1] was below 10 nM; in assay [2] it was above 500 nM; in assay [3] it was above 500 nM; in assay [4], below 10 nM.
With `CC(Nc1ncnc2[nH]ccc(=O)c12)c1nc2ccc(F)cc2c(-c2ccccn2)c1-c1ccccn1` (centres unmarked) [Example 26, 4-((1-(6-fluoro-3,4-di(pyridine-2-yl)quinoline-2-yl)ethyl)amino)pyrido[2,3-d]pyrimidine-5(8H)-one], the IC50 in assay [1] is 10 to 500 nM; in assay [2], above 500 nM; in assay [3], above 500 nM; in assay [4] it was above 500 nM.
On to `C[C@H](Nc1ncnc2[nH]ccc(=O)c12)c1nc2ccc(F)cc2c(-c2ccccn2)c1-c1ccccc1` [Example 27, (S)-4-((1-(6-fluoro-3-phenyl-4-(pyridine-2-yl)quinoline-2-yl)ethyl)amino)pyrido[2,3-d]pyrimidine-5(8H)-one], for which the half-maximal inhibitory concentration (IC50) in assay [1] is 10 to 500 nM; in assay [2], above 500 nM; in assay [3] it was above 500 nM; in assay [4] it was 10 to 500 nM.
Turning to `C[C@H](Nc1ncnc2[nH]ccc(=O)c12)c1nc2ccc(F)cc2c(=O)n1-c1cccnc1` [Example 28, (S)-4-((1-(6-fluoro-4-oxo-3-(pyridine-3-yl)-3,4-dihydroquinazoline-2-yl)ethyl)amino)pyrido[2,3-d]pyrimidine-5(8H)-one], the half-maximal inhibitory concentration (IC50) in assay [1] was 10 to 500 nM; in assay [2] it was above 500 nM; in assay [3] it was above 500 nM; in assay [4], above 500 nM.
